In the METLIN SMRT retention time set (Domingo-Almenara et al. 2019):

Assay: gradient 5% acetonitrile 3 min, to 50% in 2 min, to 85% in 15 min, held 3 min, 100 µL/min
Conditions: column: Zorbax Extend-C18 2.1 x 50 mm; eluents: water / acetonitrile, 0.1% formic acid
Method in brief: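 Over 3 months, pure standards in mixtures of ~100 molecules were run by HPLC coupled to a quadrupole time-of-flight mass spectrometer in positive and negative ionization mode. The column was a Zorbax Extend-C18 (2.1 × 50 mm, 1.8 μm) at 100 μL/min, eluted with water and acetonitrile each holding 0.1% formic acid, with 40 μL dead and 900 μL dwell volumes. Retention time was determined from adduct peaks chosen by software and checked manually.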

| Structure (SMILES) | RP-LC retention time |
| --- | --- |
| O=C(Cn1nc(Cc2cccnc2)c2ccccc2c1=O)N1CC=C(c2ccccc2)CC1 | 680 s |
| Cc1ccc2nc(-c3ccc(Cl)cc3)c(Nc3ccc(Cl)cc3)n2c1 | 831 s |
| COc1ccc(S(=O)(=O)Nc2ccc3c(c2)CCC(=O)N3CC(C)C)cc1 | 832 s |
| CCCn1cc(C(=O)NCc2ccc(N(C)C)cc2)c2cccnc21 | 630 s |
| Cc1c(CN2CC3(CCCCC3)CC2COc2ccncc2)cnn1C (configuration not stated) | 565 s |
| COc1ccc(S(=O)(=O)CCc2noc(C(=O)NCCN3CCC(C)CC3)n2)cc1 | 646 s |
| COc1cccc(N2CCN(Cc3nc4nc(C)cc(N5CCCC5)n4n3)CC2)c1 | 619 s |
| Cc1ccc(Nc2c(-c3ccccc3O)nc3ccc(Br)cn23)cc1 | 1070 s |
| CCc1ccc(CNc2nc3ccccc3n2CCN(CC)CC)cc1 | 558 s |
| COCCCNC(=O)c1ccc(-c2cnc(NC3CCCCC3)nc2)cc1 | 806 s |
| O=C(CN1CCCc2nc(C3CC3)ncc2C1=O)NC1CCCC1 | 673 s |
| Cc1cc(N2CCN(C)CC2)nc(N2CCN(S(=O)(=O)c3ccc(Br)cc3)CC2)n1 | 580 s |
| Cc1ccn2c(NC(=O)c3cccc(C(F)(F)F)c3)c(-c3ccccc3)nc2c1 | 736 s |
| O=C(Nc1nccs1)C1CCN(C(=O)c2ccc[nH]c2=O)CC1 | 558 s |
| COc1ccccc1-c1ccc(N2CCC(C(=O)NN3CCOCC3)CC2)nn1 | 530 s |
| Cc1nn(-c2ccc(N3CCOCC3)nn2)c(C)c1CCC(=O)NCCC(C)C | 672 s |
| CCn1c(=O)c(C)nc2cc(-c3noc(-c4cccc(C)c4)n3)ccc21 | 1190 s |
| Cc1ccc(-c2nc3ncccn3c2Nc2ccccc2)cc1 | 714 s |
| Cc1nnc(-c2ccc3ccn(CC(=O)N4CCN(c5cccc(C)c5C)CC4)c3c2)o1 | 997 s |
| Cc1ccc(CNC(=O)c2cnc(-c3ccccc3)nc2-c2ccncc2)cc1C | 916 s |
| Cc1ccc2c(c1)cc(S(=O)(=O)c1ccccc1)c(=O)n2CC(=O)NCc1ccc2c(c1)OCO2 | 899 s |
| CC1=C(c2ccccc2)C=NNCC1=O | 733 s |
| O=C(c1ccc(OC(F)(F)F)cc1)N1C[C@@H]2C[C@H]1C[C@@H]2NS(=O)(=O)c1cccnc1 | 761 s |

| Structure (SMILES) | RP-LC retention time |
| --- | --- |
| Cc1ccc(-c2ocnc2C(=O)Nc2ccc(Br)cc2F)o1 | 1290 s |
| O=C(NCc1[nH]nc2ccccc12)c1ccoc1 | 655 s |
| Cc1ccc(F)cc1S(=O)(=O)N[C@@H]1CN(c2ncccn2)C[C@H]1CN(C)C | 618 s |
| O=S(=O)(c1cccn2c(SCc3ccccc3)nnc12)N1CCCC1 | 808 s |
| CCCn1c(=O)sc2cc(S(=O)(=O)N3CCC(C(=O)N4CCCC4)CC3)ccc21 | 807 s |
| COc1ccc(OC)c(NC(=O)Cn2nc3cc(-c4ccccc4)nc(C)n3c2=O)c1 | 965 s |
| CSc1cccc(NC(=O)N2CCCC2c2nc(-c3ccc(F)cc3)no2)c1 (configuration not stated) | 1040 s |
| CCOC(=O)Cc1csc(NC(=O)CSc2nc(C)cc(C)n2)n1 | 728 s |
| Cc1ccn2cc(-c3ccc(NS(=O)(=O)c4ccc(C)c(C)c4)cc3)nc2n1 | 682 s |
| Cc1c(NC(=O)c2sc3cc(F)ccc3c2Cl)c(=O)n(-c2ccccc2)n1C | 756 s |
| Cc1sc(NC(=O)c2cccnc2)nc1-c1ccc2c(c1)NC(=O)C(C)O2 (configuration not stated) | 718 s |
| O=[N+]([O-])c1ccc(CSc2ccc(-c3ccccn3)nn2)cc1 | 893 s |
| CC(C)Oc1ccc(CNC(=O)C2CCN(c3nnc4ccccn34)CC2)cc1 | 685 s |
| Cc1sc(-c2noc(C(C)C)n2)cc1S(=O)(=O)N1CCC(C(=O)N2CCC(C)CC2)CC1 | 1150 s |
| CSc1ccc(-c2noc(Cc3nnc(-c4ccc(F)cc4)o3)n2)cc1 | 1070 s |
| COc1ccc(OC)c(CNC(=O)Cc2csc3nc(-c4ccccc4)cn23)c1 | 779 s |
| COc1ccc(-c2noc(C3CCCN3C(=O)Nc3ccc(Cl)cc3)n2)cc1 (configuration not stated) | 920 s |
| Cc1ccc(CNS(=O)(=O)c2cc3n(c2)CCCNC3=O)o1 | 615 s |
| CN1C(=O)CCc2cc(NS(=O)(=O)c3ccc(F)c(F)c3)ccc21 | 781 s |
| CCC1Oc2ccc(S(=O)(=O)N3CCC(C(=O)NCc4ccc(C)cc4)CC3)cc2NC1=O (configuration not stated) | 963 s |
| c1cc2nnc(C3CCC3)n2nc1N1CCCC1 | 920 s |
| CCn1cc(C)c(C(=O)O)c1CC(=O)Nc1cc(C)ccc1C | 866 s |
| Cc1nc2ncnn2c(N2CCOCC2)c1C | 625 s |

| Structure (SMILES) | RP-LC retention time |
| --- | --- |
| Brc1ccc(CN2CCc3nc(N4CCN(c5ccccn5)CC4)ncc3C2)cc1 | 574 s |
| Cc1cc(C)n2nc(SCC(=O)N(C)Cc3ccccc3)nc2n1 | 710 s |
| CCc1cccc(NC(=O)c2c(O)c3cccnc3n(-c3ccccc3)c2=O)c1 | 1430 s |
| Cc1cccc2c(=O)n(C3CCN(S(=O)(=O)c4ccc(Cl)cc4)CC3)cnc12 | 1030 s |
| CN(C)CCNC(=O)C1CCN(c2ccc3nnc(-c4ccccc4Cl)n3n2)CC1 | 589 s |
| CCCNC(=O)C1CCN(c2ccc(SCC(=O)NCc3ccccc3Cl)nn2)CC1 | 644 s |
| Cc1ccc(-c2cc(C(=O)NCc3ccc4c(c3)OCO4)ccn2)s1 | 902 s |
| O=C1NCCCn2cc(S(=O)(=O)NCc3ccc(OC(F)(F)F)cc3)cc21 | 740 s |
| COc1ccc(OC)c(S(=O)(=O)N2C[C@@H](F)C[C@H]2C(=O)N2CCc3ccccc3C2)c1 | 829 s |
| O=C(NCc1cccs1)C1CN(C(=O)c2cccs2)CC12CCCCC2 (configuration not stated) | 856 s |
| COc1ccccc1Nc1nc(-c2ccc(C)cc2)c(C)s1 | 1210 s |
| O=C(Cc1cccs1)Nc1ccc2c(N3CCCCC3)ncnc2c1 | 594 s |
| Cc1cnc2c(N)cc(C)c(C)c2c1 | 715 s |
| OCCNCCN1CCN(CCCN2c3ccccc3Sc3ccc(C(F)(F)F)cc32)CC1 | 641 s |
| CCCS(=O)(=O)c1nc2ccc(NS(=O)(=O)c3ccc(F)c(Cl)c3)cc2s1 | 1020 s |
| CC1CC(=O)N(CC(=O)Nc2cccc([N+](=O)[O-])c2)c2ccccc2S1 (configuration not stated) | 843 s |
| Cc1ccc(-c2cc(C(=O)NCCN3CCN(C)CC3)n(C)c2)cc1 | 624 s |
| CCS(=O)(=O)c1ncc(Cl)c(C(=O)Nc2ccc(Oc3ccccc3)cc2)n1 | 929 s |
| O=C(NCc1ccc2c(c1)OCO2)c1n[nH]nc1Nc1ccc(F)cc1 | 872 s |
| CC1(c2ccccc2)NN=C2Oc3ccccc3N21 (configuration not stated) | 812 s |
| CCn1cc(-c2nc(C)c(C(=O)NCc3ccccc3F)s2)c2cccnc21 | 1090 s |
